# Key:
# Test in all cases: biochemical
# Assay type in all cases: binding
# [1] = target: panel of 468 diverse kinases (Homo sapiens, UniProt Q15375); conditions: EPHA7; 1000 nM; read-out: Percent Control
# [2] = target: panel of 468 diverse kinases (Homo sapiens, UniProt Q13470); conditions: TNK1; 1000 nM; read-out: Percent Control
# [3] = target: panel of 468 diverse kinases (Homo sapiens, UniProt P42685); conditions: FRK; 1000 nM; read-out: Percent Control
# [4] = target: panel of 468 diverse kinases (Homo sapiens, UniProt P37173); conditions: TGFBR2; 1000 nM; read-out: Percent Control
# [5] = target: panel of 468 diverse kinases (Homo sapiens, UniProt P00519, M351T); conditions: ABL1(M351T)-phosphorylated; 1000 nM; read-out: Percent Control
# [6] = target: panel of 468 diverse kinases (Homo sapiens, UniProt O95819); conditions: MAP4K4; 1000 nM; read-out: Percent Control
# [7] = target: panel of 468 diverse kinases (Homo sapiens, UniProt Q9UQM7); conditions: CAMK2A; 1000 nM; read-out: Percent Control
# [8] = target: panel of 468 diverse kinases (Homo sapiens, UniProt O15146); conditions: MUSK; 1000 nM; read-out: Percent Control
# [9] = target: panel of 468 diverse kinases (Homo sapiens, UniProt P07949, V804L); conditions: RET(V804L); 1000 nM; read-out: Percent Control
# [10] = target: panel of 468 diverse kinases (Homo sapiens, UniProt Q8TDX7); conditions: NEK7; 1000 nM; read-out: Percent Control
# [11] = target: panel of 468 diverse kinases (Homo sapiens, UniProt P00533, G719C); conditions: EGFR(G719C); 1000 nM; read-out: Percent Control
# [12] = target: panel of 468 diverse kinases (Homo sapiens, UniProt Q9Y6M4); conditions: CSNK1G3; 1000 nM; read-out: Percent Control
# [13] = target: panel of 468 diverse kinases (Homo sapiens, UniProt Q9H3Y6); conditions: SRMS; 1000 nM; read-out: Percent Control
# [14] = target: panel of 468 diverse kinases (Homo sapiens, UniProt Q04912); conditions: MST1R; 1000 nM; read-out: Percent Control
# [15] = target: panel of 468 diverse kinases (Homo sapiens, UniProt Q8WXR4); conditions: MYO3B; 1000 nM; read-out: Percent Control
# [16] = target: panel of 468 diverse kinases (Homo sapiens, UniProt P78356); conditions: PIP5K2B; 1000 nM; read-out: Percent Control
# [17] = target: panel of 468 diverse kinases (Homo sapiens, UniProt P78362); conditions: SRPK2; 1000 nM; read-out: Percent Control
# [18] = target: panel of 468 diverse kinases (Homo sapiens, UniProt P22694); conditions: PKAC-beta; 1000 nM; read-out: Percent Control
# [19] = target: panel of 468 diverse kinases (Homo sapiens, UniProt P08069); conditions: IGF1R; 1000 nM; read-out: Percent Control
# [20] = target: panel of 468 diverse kinases (Homo sapiens, UniProt P11309); conditions: PIM1; 1000 nM; read-out: Percent Control
# [21] = target: panel of 468 diverse kinases (Homo sapiens, UniProt P22607, G697C); conditions: FGFR3(G697C); 1000 nM; read-out: Percent Control
# [22] = target: panel of 468 diverse kinases (Homo sapiens, UniProt Q86V86); conditions: PIM3; 1000 nM; read-out: Percent Control
# [23] = target: panel of 468 diverse kinases (Homo sapiens, UniProt Q14289); conditions: PYK2; 1000 nM; read-out: Percent Control
# [24] = target: panel of 468 diverse kinases (Homo sapiens, UniProt Q8NEV4); conditions: MYO3A; 1000 nM; read-out: Percent Control
# [25] = target: panel of 468 diverse kinases (Homo sapiens, UniProt P35968); conditions: VEGFR2; 1000 nM; read-out: Percent Control
# [26] = target: panel of 468 diverse kinases (Homo sapiens, UniProt O43293); conditions: DAPK3; 1000 nM; read-out: Percent Control
# [27] = target: panel of 468 diverse kinases (Homo sapiens, UniProt P07949, M918T); conditions: RET(M918T); 1000 nM; read-out: Percent Control
# [28] = target: panel of 468 diverse kinases (Homo sapiens, UniProt Q8TBX8); conditions: PIP5K2C; 1000 nM; read-out: Percent Control
# [29] = target: panel of 468 diverse kinases (Homo sapiens, UniProt Q6XUX3); conditions: RIPK5; 1000 nM; read-out: Percent Control
# [30] = target: panel of 468 diverse kinases (Homo sapiens, UniProt P42681); conditions: TXK; 1000 nM; read-out: Percent Control
# [31] = target: panel of 468 diverse kinases (Homo sapiens, UniProt Q86Y07); conditions: VRK2; 1000 nM; read-out: Percent Control
# Sequence of panel of 468 diverse kinases (Homo sapiens, UniProt P35968) (P35968 20-1356 limits assumed): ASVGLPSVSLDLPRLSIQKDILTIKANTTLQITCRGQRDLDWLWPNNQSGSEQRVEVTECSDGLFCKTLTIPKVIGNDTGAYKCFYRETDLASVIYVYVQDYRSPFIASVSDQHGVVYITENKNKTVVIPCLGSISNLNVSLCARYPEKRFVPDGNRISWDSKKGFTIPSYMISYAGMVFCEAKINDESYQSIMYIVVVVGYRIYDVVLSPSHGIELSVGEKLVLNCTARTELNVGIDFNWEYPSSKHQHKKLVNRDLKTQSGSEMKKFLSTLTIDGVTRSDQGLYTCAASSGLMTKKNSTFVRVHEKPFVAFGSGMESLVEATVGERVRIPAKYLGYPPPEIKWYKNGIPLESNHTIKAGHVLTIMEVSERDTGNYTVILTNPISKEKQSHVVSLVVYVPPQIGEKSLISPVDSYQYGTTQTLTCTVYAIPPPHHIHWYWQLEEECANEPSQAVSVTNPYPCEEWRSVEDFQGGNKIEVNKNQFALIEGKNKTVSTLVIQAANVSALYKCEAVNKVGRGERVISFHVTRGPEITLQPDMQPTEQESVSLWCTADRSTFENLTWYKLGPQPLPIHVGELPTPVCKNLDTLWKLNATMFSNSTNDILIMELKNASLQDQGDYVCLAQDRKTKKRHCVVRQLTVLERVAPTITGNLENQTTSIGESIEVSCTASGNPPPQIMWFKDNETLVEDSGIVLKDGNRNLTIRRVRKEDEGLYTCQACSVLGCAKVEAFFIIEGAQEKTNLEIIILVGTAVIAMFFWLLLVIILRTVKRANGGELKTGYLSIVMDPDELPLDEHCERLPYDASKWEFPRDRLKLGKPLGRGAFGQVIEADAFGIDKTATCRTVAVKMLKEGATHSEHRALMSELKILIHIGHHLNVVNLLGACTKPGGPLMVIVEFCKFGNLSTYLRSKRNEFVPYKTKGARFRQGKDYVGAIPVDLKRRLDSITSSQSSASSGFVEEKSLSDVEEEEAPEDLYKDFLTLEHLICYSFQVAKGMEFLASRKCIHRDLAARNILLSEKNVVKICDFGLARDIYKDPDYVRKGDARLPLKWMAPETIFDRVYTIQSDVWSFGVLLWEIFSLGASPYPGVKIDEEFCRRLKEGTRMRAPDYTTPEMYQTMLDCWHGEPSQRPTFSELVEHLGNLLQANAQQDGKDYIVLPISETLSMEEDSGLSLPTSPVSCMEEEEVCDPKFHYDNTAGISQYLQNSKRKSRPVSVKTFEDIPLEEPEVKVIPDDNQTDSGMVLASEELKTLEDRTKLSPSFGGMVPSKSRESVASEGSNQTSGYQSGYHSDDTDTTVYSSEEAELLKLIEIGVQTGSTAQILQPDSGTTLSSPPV
# Sequence of panel of 468 diverse kinases (Homo sapiens, UniProt P08069) (P08069 31-736 limits assumed): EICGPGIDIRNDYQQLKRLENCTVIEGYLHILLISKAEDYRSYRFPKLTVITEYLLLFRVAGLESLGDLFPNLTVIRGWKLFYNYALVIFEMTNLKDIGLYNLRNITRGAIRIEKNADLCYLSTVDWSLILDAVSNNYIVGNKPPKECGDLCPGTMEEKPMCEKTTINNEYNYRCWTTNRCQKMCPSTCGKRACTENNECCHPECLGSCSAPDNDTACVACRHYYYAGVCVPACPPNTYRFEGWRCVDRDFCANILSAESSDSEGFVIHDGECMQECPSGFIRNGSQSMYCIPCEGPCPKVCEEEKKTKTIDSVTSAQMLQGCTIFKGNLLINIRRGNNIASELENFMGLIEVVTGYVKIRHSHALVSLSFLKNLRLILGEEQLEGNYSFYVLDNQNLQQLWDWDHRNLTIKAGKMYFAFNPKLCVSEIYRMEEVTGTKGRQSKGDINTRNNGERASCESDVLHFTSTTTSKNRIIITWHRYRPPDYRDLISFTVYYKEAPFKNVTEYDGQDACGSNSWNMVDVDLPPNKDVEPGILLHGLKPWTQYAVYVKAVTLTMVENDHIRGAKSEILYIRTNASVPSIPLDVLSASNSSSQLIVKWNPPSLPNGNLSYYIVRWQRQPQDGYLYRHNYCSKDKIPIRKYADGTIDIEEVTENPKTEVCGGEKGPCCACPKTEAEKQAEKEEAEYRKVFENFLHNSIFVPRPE
# Sequence of panel of 468 diverse kinases (Homo sapiens, UniProt P08069) (P08069 741-1367 limits assumed): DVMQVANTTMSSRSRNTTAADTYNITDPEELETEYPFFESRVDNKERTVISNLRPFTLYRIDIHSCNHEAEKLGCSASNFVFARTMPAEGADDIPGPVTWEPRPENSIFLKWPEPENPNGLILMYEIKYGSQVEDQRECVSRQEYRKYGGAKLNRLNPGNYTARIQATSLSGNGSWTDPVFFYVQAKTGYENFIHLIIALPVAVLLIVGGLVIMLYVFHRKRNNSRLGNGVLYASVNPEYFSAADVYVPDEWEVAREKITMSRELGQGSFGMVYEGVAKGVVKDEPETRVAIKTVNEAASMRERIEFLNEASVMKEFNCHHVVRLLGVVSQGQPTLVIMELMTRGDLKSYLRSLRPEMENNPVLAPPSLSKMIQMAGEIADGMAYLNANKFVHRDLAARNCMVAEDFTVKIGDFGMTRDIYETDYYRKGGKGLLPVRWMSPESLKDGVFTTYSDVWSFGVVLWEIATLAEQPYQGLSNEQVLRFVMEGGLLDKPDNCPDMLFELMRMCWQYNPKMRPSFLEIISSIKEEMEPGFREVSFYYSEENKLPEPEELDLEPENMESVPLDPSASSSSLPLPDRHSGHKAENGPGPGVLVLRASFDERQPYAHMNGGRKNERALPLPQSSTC
# Sequence of panel of 468 diverse kinases (Homo sapiens, UniProt P78356) (P78356 2-416 limits assumed): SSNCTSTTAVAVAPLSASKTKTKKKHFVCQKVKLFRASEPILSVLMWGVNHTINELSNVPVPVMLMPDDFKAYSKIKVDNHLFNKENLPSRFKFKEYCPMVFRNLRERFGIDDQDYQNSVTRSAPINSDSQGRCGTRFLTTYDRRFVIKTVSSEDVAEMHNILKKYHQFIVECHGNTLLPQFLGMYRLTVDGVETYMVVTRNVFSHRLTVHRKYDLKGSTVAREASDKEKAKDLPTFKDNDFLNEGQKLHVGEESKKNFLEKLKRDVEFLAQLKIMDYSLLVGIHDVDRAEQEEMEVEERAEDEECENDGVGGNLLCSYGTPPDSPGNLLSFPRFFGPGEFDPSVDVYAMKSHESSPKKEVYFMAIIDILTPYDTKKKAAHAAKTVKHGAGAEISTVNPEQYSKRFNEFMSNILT
# Sequence of panel of 468 diverse kinases (Homo sapiens, UniProt Q8TBX8) (Q8TBX8 2-421 limits assumed): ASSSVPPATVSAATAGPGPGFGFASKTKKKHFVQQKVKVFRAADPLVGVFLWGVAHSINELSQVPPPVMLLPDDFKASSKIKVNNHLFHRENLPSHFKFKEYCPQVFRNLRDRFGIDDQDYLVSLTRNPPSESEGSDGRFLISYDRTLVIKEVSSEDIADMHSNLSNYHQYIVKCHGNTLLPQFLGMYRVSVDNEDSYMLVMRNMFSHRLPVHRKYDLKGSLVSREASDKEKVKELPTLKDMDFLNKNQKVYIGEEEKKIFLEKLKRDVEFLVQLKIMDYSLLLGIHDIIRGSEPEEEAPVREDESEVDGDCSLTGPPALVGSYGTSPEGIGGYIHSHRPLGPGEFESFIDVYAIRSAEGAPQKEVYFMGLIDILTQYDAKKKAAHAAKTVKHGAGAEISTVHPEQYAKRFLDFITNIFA
# Sequence of panel of 468 diverse kinases (Homo sapiens, UniProt Q15375) (Q15375 28-998 limits assumed): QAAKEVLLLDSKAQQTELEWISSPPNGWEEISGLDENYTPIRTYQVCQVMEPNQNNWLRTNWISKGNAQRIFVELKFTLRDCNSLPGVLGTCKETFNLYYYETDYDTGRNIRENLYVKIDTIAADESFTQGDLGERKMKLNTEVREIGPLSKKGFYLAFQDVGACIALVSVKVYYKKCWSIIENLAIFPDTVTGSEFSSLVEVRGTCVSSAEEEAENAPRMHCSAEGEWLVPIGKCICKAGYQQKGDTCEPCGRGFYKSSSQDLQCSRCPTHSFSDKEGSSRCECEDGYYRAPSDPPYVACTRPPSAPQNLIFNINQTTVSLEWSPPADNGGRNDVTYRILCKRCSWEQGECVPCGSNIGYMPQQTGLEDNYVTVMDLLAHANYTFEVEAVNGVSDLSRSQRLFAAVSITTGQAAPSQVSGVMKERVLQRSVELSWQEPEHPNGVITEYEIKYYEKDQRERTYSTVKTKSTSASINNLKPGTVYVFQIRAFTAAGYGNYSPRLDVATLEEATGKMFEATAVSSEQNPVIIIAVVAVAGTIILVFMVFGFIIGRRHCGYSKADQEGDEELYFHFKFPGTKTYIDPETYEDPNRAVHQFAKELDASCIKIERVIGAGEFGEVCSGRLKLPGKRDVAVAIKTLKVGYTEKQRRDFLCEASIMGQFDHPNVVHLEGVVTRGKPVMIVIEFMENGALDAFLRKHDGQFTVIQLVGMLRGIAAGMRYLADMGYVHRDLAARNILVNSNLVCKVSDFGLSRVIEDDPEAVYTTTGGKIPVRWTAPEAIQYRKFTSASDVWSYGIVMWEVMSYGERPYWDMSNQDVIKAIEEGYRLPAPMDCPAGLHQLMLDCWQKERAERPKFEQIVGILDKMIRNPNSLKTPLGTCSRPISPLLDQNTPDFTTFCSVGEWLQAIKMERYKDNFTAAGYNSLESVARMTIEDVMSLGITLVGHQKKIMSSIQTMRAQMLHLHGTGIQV
# Sequence of panel of 468 diverse kinases (Homo sapiens, UniProt P37173) (P37173 23-567 limits assumed): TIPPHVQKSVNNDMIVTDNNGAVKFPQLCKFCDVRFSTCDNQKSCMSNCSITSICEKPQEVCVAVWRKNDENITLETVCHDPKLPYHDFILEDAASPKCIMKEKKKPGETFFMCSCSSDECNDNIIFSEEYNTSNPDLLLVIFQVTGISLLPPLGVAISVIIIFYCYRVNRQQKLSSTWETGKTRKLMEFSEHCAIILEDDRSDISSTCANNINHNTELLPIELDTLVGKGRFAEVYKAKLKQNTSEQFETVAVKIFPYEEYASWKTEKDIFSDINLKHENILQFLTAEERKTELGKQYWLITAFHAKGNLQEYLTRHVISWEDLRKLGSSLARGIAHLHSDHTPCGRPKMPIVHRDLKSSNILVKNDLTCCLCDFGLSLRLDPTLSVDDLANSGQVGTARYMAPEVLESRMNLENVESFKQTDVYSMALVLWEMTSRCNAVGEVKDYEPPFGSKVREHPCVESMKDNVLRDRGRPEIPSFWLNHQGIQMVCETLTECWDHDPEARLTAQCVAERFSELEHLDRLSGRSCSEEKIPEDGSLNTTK
compound,measurement,setting,value
COc1cc2nc(NC3CC3)nc(NC3CCN(C(C)C)CC3)c2cc1OC [Formula IV],remaining activity at 1 µM,[1],93%
same,remaining activity at 1 µM,[2],67%
same,remaining activity at 1 µM,[3],100%
same,remaining activity at 1 µM,[4],94%
same,remaining activity at 1 µM,[5],59%
same,remaining activity at 1 µM,[6],100%
same,remaining activity at 1 µM,[7],87%
same,remaining activity at 1 µM,[8],83%
same,remaining activity at 1 µM,[9],75%
same,remaining activity at 1 µM,[10],89%
same,remaining activity at 1 µM,[11],91%
same,remaining activity at 1 µM,[12],100%
same,remaining activity at 1 µM,[13],89%
same,remaining activity at 1 µM,[14],100%
same,remaining activity at 1 µM,[15],91%
same,remaining activity at 1 µM,[16],100%
same,remaining activity at 1 µM,[17],80%
same,remaining activity at 1 µM,[18],96%
same,remaining activity at 1 µM,[19],97%
same,remaining activity at 1 µM,[20],90%
same,remaining activity at 1 µM,[21],100%
same,remaining activity at 1 µM,[22],85%
same,remaining activity at 1 µM,[23],93%
same,remaining activity at 1 µM,[24],100%
same,remaining activity at 1 µM,[25],45%
same,remaining activity at 1 µM,[26],89%
same,remaining activity at 1 µM,[27],85%
same,remaining activity at 1 µM,[28],80%
same,remaining activity at 1 µM,[29],54%
same,remaining activity at 1 µM,[30],98%
same,remaining activity at 1 µM,[31],56%

# — patent publication US11542240B2, “STK19 inhibitors for treatment of cancer” (TRUSTEES OF BOSTON UNIVERSITY, priority 2018, dated 2023)
